Results published in patent US20180141913A1 (EISAI R & D MANAGEMENT CO., LTD., priority 2016, published 2018).

Assays:
[1] = system: MCF7-Y537S cells (MCF7 ER-alpha Y537S mutant); assay: In vitro proliferation (viability) assay, MCF7-Y537S cells; format: cell-based; conditions: Homo sapiens, MCF7; CellTiter-Glo, day 6 vs day 0; average ± standard deviation; free base and/or salt forms; read-out: MCF7 Y537S GI50
Protocol: (§1) MCF7 BUS cells (Coser, et al., (2003) PNAS 100(24): 13994-13999) were maintained in Dulbecco's Modified Eagle Medium supplemented with 10% FBS, 4 mM L-glutamine and 1× non-essential amino acids. Lenti-X 293T cells (Clontech, Cat #632180) were routinely cultured in Dulbecco's Modified Eagle Medium supplemented with 10% FBS.
(§2) The QuikChange II XL Site-Directed Mutagenesis Kit (Agilent Technologies, Cat #200523) was used to generate Y537S, Y537C, Y537N and D538G mutations within the ERα exon 8. Wild-type ESR1 cDNA (GeneCopoeia Inc., Cat# GC-A0322, accession no. NM 000125) was used as a template with the following mutagenesis primers (where the underlined nucleotides represent site mutations); Y537S: F-AAGAACGTGGTGCCCCTCTCTGACCTGCTGCTGGAGATG (SEQ ID NO: 1), R-CATCTCCAGCAGCAGGTCAGAGAGGGGCACCACGTTCTT (SEQ ID NO: 2); Y537N: F-AAGAACGTGGTGCCCCTCAATGACCTGCTGCTGGAGATG (SEQ ID NO: 3), R-CATCTCCAGCAGCAGGTCATTGAGGGGCACCACGTTCTT (SEQ ID NO: 4); Y537C: F-AAGAACGTGGTGCCCCTCTGTGACCTGCTGCTGGAGATG (SEQ ID NO: 5), R-CATCTCCAGCAGCAGGTCACAGAGGGGCACCACGTTCTT (SEQ ID NO: 6); D538G: F-AACGTGGTGCCCCTCTATGGCCTGCTGCTGGAGATGCTG (SEQ ID NO: 7), R-CAGCATCTCCAGCAGCAGGCCATAGAGGGGCACCACGTT (SEQ ID NO: 8). WT and mutant ESR1 cDNAs were cloned into the designation lentiviral vector pLenti6.3/V5-Dest (Invitrogen, Cat #V533-06). To make lentivirus, DNAs (WT and mutant ESR1) were co-transfected with packaging plasmids into Lenti-X 293T cells using TransIT (Mirus, Cat #MIR 2700). 48 h post-transfection, virus containing media was filtered and added to MCF7 cells in the presence of 8 µg/ml polybrene overnight. Two days following infection, cells were placed under selection with 10 µg/ml blasticidin for 2 weeks for stable expression.
(§3) MCF7-WT and -Y537S cells were seeded at 1500 cells/well in black-walled 96-well plates (assay plates, Costar, Cat #3904). In parallel, cells were also seeded in a separate 96-well plate (8 wells/cell line, control plate) for which a CTG (CellTiter-Glo® Luminescent Viability Assay, Promega, Cat #G7572) was measured the following day (day 0 reading). The day 0 reading was used for the GI50 calculation at the termination of the experiment. The day following seeding, compounds were added to assay plates. Briefly, a 1:4 serial dilution was prepared in DMSO at 200× final concentration for a total of 10 concentrations (9 dilutions containing compound and one is DMSO only). Serially diluted compounds were pipetted into medium to prepare a compound-medium mix at 10× final concentration. 10 μl of compound-medium mix was added to MCF7-WT and -Y537S cells at 3 wells/concentration (triplicate for each concentration). On day 3, media/compound was removed and replaced with fresh media/compound as described above. On day 6, CTG was measured and compared to day 0 readings from control plate to assess GI50.

[2] = system: MCF7-WT cells (MCF7 ER-alpha wildtype); assay: In vitro proliferation (viability) assay, MCF7-WT cells; format: cell-based; conditions: Homo sapiens, MCF7; CellTiter-Glo, day 6 vs day 0; average ± standard deviation; free base and/or salt forms; read-out: MCF7 WT GI50
Protocol: as §1, §2, §3

SMILES	GI50 [1] [nM]	GI50 [2] [nM]
CC/C(=C(/c1ccc(OCCNC/C=C/C(=O)NC)cc1)c1ccc2[nH]nc(F)c2c1)c1ccc(F)cc1Cl [Compound 48, (E)-4-((2-(4-((E)-2-(2-chloro-4-fluorophenyl)-1-(3-fluoro-1H-indazol-5-yl)but-1-en-1-yl)phenoxy)ethyl)amino)-N-methylbut-2-enamide]	8.25 ± 2.6	0.8 ± 0.14
CC/C(=C(/c1ccc(OCCNC/C=C/C(=O)NC)nc1)c1ccc2[nH]nc(C)c2c1)c1ccccc1 [Compound 49, (E)-N-methyl-4-((2-((5-((Z)-1-(3-methyl-1H-indazol-5-yl)-2-phenylbut-1-en-1-yl)pyridin-2-yl)oxy)ethyl)amino)but-2-enamide]	2420	173 ± 51.7
CC/C(=C(/c1ccc(OCCNC/C=C/C(=O)NC)cc1)c1ccc2[nH]ncc2c1)c1ccccc1 [Compound 50, (E)-4-((2-(4-((E)-1-(1H-indazol-5-yl)-2-phenylbut-1-en-1-yl)phenoxy)ethyl)amino)-N-methylbut-2-enamide]	98.5 ± 81.5	4 ± 1.16
CC/C(=C(/c1ccc(OCCNCCCC(=O)NC)cc1)c1ccc2[nH]ncc2c1)c1ccccc1 [Compound 51, (E)-4-((2-(4-(1-(1H-indazol-5-yl)-2-phenylbut-1-en-1-yl)phenoxy)ethyl)amino)-N-methylbutanamide]	190 ± 50.1	9.82 ± 1.92
O=C(/C=C/CNCCOc1ccc(/C(=C(/CC(F)(F)F)c2ccccc2)c2ccc3[nH]nc(F)c3c2)cc1)N1CCCCC1 [Compound 52, (E)-1-(piperidin-1-yl)-4-((2-(4-((E)-4,4,4-trifluoro-1-(3-fluoro-1H-indazol-5-yl)-2-phenylbut-1-en-1-yl)phenoxy)ethyl)amino)but-2-en-1-one]	9.3	1.2
O=C1NCCC1CCNCCOc1ccc(/C(=C(/CC(F)(F)F)c2ccccc2)c2ccc3[nH]nc(F)c3c2)cn1 (stereo not shown) [Compound 53, (Z)-3-(2-((2-((5-(4,4,4-trifluoro-1-(3-fluoro-1H-indazol-5-yl)-2-phenylbut-1-en-1-yl)pyridin-2-yl)oxy)ethyl)amino)ethyl)pyrrolidin-2-one]	1.8	0.3
CNC(=O)/C=C/CNCCOc1ccc(/C(=C(/CC(F)(F)F)c2ccccc2)c2ccc3[nH]nc(F)c3c2)nn1 [Compound 54, (E)-N-methyl-4-((2-((6-((Z)-4,4,4-trifluoro-1-(3-fluoro-1H-indazol-5-yl)-2-phenylbut-1-en-1-yl)pyridazin-3-yl)oxy)ethyl)amino)but-2-enamide]	7690	892 ± 528
CNC(=O)/C=C/CNCCOc1ccc(/C(=C(/CC(F)(F)F)c2ccc(F)cc2Cl)c2ccc3[nH]ncc3c2)cn1 [Compound 58, (E)-4-((2-((5-((Z)-2-(2-chloro-4-fluorophenyl)-4,4,4-trifluoro-4,4,4-trifluoro-1-(1H-indazol-5-yl)but-1-en-1-yl)pyridin-2-yl)oxy)ethyl)amino)-N-methylbut-2-enamide]	3.97 ± 2.25	0.33 ± 0.12
CC/C(=C(/c1ccc(OCCNCCCC(=O)NC)nc1)c1ccc2[nH]ncc2c1)c1ccccc1 [Compound 62, (Z)-4-((2-((5-(1-(1H-indazol-5-yl)-2-phenylbut-1-en-1-yl)pyridin-2-yl)oxy)ethyl)amino)-N-methylbutanamide]	14.5 ± 4.32	3.31 ± 0.43
CNC(=O)/C=C/CNCCOc1ccc(/C(=C(\c2ccccc2)C2CC2)c2ccc3[nH]nc(F)c3c2)cc1 [Compound 63, (E)-4-((2-(4-((E)-2-cyclopropyl-1-(3-fluoro-1H-indazol-5-yl)-2-phenylvinyl)phenoxy)ethyl)amino)-N-methylbut-2-enamide]	117 ± 11.6	17.9 ± 8.66
CNC(=O)/C=C/CNCCOc1ccc(/C(=C(/CCO)c2ccccc2)c2ccc3[nH]nc(F)c3c2)cc1 [Compound 64, (E)-4-((2-(4-((E)-1-(3-fluoro-1H-indazol-5-yl)-4-hydroxy-2-phenylbut-1-en-1-yl)phenoxy)ethyl)amino)-N-methylbut-2-enamide]	673 ± 167	153 ± 27.4
CNC(=O)/C=C/CNCCOc1ccc(/C(=C(/CCOC)c2ccccc2)c2ccc3[nH]nc(F)c3c2)cc1 [Compound 65, (E)-4-((2-(4-((E)-1-(3-fluoro-1H-indazol-5-yl)-4-methoxy-2-phenylbut-1-en-1-yl)phenoxy)ethyl)amino)-N-methylbut-2-enamide]	310 ± 139	58.3 ± 48.1
CNC(=O)/C=C/CNCCOc1ccc(/C(=C(/CCCl)c2ccccc2)c2ccc3[nH]nc(F)c3c2)cc1 [Compound 66, (E)-4-((2-(4-((E)-4-chloro-1-(3-fluoro-1H-indazol-5-yl)-2-phenylbut-1-en-1-yl)phenoxy)ethyl)amino)-N-methylbut-2-enamide]	> 10000	437 ± 55.2
CCC/C(=C(/c1ccc(OCCNC/C=C/C(=O)NC)cc1)c1ccc2[nH]nc(F)c2c1)c1ccccc1 [Compound 67, (E)-4-((2-(4-((E)-1-(3-fluoro-1H-indazol-5-yl)-2-phenylpent-1-en-1-yl)phenoxy)ethyl)amino)-N-methylbut-2-enamide]	87.7 ± 55	5.38 ± 0.66
CNC(=O)/C=C/CNCCOc1ccc(/C(=C(\c2ccccc2)C(C)C)c2ccc3[nH]nc(F)c3c2)cc1 [Compound 68, (E)-4-((2-(4-((E)-1-(3-fluoro-1H-indazol-5-yl)-3-methyl-2-phenylbut-1-en-1-yl)phenoxy)ethyl)amino)-N-methylbut-2-enamide]	101 ± 53	22 ± 2.66
CNC(=O)/C=C/CNCCOc1ccc(/C(=C/CC(F)(F)F)c2ccc3[nH]nc(F)c3c2)nn1 [Compound 69, (E)-N-methyl-4-((2-((6-((E)-4,4,4-trifluoro-1-(3-fluoro-1H-indazol-5-yl)but-1-en-1-yl)pyridazin-3-yl)oxy)ethyl)amino)but-2-enamide]	9400	8080
O=C1CCCN1CCOc1ccc(/C(=C(/CC(F)(F)F)c2ccccc2)c2ccc3[nH]nc(F)c3c2)cc1 [Compound 70, (E)-1-(2-(4-(4,4,4-trifluoro-1-(3-fluoro-1H-indazol-5-yl)-2-phenylbut-1-en-1-yl)phenoxy)ethyl)pyrrolidin-2-one]	6.18 ± 2.51	0.95 ± 0.25
CNC(=O)CCCNCCOc1ccc(/C(=C(/CC(F)(F)F)c2ccccc2)c2ccc3[nH]nc(F)c3c2)cn1 [Compound 71, (Z)—N-methyl-4-((2-((5-(4,4,4-trifluoro-1-(3-fluoro-1H-indazol-5-yl)-2-phenylbut-1-en-1-yl)pyridin-2-yl)oxy)ethyl)amino)butanamide]	5.31	0.62
O=C(O)/C=C/CNCCOc1ccc(/C(=C(/CC(F)(F)F)c2ccccc2)c2ccc3[nH]nc(F)c3c2)cn1 [Compound 72, (E)-4-((2-((5-((Z)-4,4,4-trifluoro-1-(3-fluoro-1H-indazol-5-yl)-2-phenylbut-1-en-1-yl)pyridin-2-yl)oxy)ethyl)amino)but-2-enoic acid]	22.2 ± 14.3	1.86 ± 0.87
CC/C(=C(/c1ccc(OCCNC/C=C/C(=O)O)cc1)c1ccc2[nH]ncc2c1)c1ccccc1 [Compound 73, (E)-4-((2-(4-((E)-1-(1H-indazol-5-yl)-2-phenylbut-1-en-1-yl)phenoxy)ethyl)amino)but-2-enoic acid]	155 ± 60.1	7.34 ± 0.58
